Test results as given in the supplement of paper PMC13386468.

How the values were obtained:
Assay in all cases: IC50 for competition of protein binding to Kinobeads
Settings in all cases: assay detail: Kinobeads competition in P. falciparum blood-stage lysate
[1] = biological target: UniProt Q8IIV1
[2] = biological target: UniProt Q8IK91
[3] = biological target: UniProt Q8I5D4
[4] = biological target: UniProt Q8I488
[5] = biological target: UniProt C0H551
[6] = biological target: UniProt Q6LFH8
Sequence of UniProt Q6LFH8 (Q6LFH8 whole entry): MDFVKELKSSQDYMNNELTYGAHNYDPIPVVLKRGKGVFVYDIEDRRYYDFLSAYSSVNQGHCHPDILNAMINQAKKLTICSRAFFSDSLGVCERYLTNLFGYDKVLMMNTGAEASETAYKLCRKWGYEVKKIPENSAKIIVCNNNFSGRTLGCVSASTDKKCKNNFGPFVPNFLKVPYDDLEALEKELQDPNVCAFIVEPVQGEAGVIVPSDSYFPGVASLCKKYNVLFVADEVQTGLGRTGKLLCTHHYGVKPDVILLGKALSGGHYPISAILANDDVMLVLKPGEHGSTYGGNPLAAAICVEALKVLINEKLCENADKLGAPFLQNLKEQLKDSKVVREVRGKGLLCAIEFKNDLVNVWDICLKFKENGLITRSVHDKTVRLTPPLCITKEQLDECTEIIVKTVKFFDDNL

[7] = biological target: UniProt Q8I5S7
[8] = biological target: UniProt C0H4C5
[9] = biological target: UniProt Q8ILW9
Sequence of UniProt Q8ILW9 (Q8ILW9 whole entry): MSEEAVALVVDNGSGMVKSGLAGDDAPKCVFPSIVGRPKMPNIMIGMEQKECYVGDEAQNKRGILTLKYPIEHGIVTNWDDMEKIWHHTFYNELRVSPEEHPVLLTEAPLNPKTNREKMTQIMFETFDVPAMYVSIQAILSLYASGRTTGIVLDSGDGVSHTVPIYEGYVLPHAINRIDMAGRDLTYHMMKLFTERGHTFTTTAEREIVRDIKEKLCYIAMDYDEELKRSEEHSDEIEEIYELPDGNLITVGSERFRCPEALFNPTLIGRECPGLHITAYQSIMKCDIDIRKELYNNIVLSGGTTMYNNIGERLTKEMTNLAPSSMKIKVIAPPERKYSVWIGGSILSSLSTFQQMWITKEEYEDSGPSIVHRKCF

[10] = biological target: UniProt Q8IL11
Sequence of UniProt Q8IL11 (Q8IL11 whole entry): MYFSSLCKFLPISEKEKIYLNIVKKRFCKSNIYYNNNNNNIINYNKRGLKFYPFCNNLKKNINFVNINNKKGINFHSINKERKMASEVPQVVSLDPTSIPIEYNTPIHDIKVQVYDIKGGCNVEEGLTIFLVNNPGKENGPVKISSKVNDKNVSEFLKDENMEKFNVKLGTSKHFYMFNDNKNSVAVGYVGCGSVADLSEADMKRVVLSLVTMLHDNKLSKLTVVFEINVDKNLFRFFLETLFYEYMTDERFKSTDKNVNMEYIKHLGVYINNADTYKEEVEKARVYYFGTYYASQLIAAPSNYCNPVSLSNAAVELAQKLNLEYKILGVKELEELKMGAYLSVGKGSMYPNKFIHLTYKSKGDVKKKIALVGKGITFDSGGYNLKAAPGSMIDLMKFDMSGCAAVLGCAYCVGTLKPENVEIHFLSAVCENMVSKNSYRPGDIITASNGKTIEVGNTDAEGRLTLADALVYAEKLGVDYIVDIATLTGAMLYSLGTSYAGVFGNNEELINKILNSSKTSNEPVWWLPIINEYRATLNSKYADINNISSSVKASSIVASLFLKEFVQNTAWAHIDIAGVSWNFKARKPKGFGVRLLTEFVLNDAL

[11] = biological target: UniProt C0H571
Sequence of UniProt C0H571 (C0H571 whole entry): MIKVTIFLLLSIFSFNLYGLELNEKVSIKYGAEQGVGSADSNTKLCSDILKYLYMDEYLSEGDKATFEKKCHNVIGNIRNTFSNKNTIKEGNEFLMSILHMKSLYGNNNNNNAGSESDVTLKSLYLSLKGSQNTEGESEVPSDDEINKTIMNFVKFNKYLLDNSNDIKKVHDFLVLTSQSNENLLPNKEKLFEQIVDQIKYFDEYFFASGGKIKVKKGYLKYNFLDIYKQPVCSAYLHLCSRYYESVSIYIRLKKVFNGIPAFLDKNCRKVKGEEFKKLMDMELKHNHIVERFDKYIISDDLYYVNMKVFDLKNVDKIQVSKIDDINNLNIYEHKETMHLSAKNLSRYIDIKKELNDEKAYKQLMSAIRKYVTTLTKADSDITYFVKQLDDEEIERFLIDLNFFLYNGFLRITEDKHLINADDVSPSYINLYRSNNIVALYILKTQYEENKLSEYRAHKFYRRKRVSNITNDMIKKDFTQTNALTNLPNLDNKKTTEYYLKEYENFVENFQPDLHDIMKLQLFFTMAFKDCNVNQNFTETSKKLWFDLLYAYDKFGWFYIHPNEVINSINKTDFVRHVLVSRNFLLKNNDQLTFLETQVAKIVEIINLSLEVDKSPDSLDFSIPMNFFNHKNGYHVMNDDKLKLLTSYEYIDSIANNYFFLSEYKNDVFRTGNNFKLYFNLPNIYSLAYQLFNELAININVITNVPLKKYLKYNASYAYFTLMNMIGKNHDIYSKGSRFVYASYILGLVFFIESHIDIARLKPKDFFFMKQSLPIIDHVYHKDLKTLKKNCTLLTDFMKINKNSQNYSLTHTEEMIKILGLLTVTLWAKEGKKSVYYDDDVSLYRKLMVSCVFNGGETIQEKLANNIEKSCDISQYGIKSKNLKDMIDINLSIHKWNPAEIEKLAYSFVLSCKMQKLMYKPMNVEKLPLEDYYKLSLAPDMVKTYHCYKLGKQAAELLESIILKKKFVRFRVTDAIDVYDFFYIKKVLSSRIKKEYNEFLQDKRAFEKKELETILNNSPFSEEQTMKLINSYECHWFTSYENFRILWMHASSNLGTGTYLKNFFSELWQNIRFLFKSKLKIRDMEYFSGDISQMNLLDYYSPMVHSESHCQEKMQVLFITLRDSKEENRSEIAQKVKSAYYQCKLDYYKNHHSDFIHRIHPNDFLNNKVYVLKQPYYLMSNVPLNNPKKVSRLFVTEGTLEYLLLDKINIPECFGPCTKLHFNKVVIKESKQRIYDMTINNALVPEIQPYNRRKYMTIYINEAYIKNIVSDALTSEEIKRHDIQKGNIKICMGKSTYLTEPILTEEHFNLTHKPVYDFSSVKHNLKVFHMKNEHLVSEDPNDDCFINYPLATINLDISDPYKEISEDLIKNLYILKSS

[12] = biological target: UniProt Q8I6U4
Sequence of UniProt Q8I6U4 (Q8I6U4 whole entry): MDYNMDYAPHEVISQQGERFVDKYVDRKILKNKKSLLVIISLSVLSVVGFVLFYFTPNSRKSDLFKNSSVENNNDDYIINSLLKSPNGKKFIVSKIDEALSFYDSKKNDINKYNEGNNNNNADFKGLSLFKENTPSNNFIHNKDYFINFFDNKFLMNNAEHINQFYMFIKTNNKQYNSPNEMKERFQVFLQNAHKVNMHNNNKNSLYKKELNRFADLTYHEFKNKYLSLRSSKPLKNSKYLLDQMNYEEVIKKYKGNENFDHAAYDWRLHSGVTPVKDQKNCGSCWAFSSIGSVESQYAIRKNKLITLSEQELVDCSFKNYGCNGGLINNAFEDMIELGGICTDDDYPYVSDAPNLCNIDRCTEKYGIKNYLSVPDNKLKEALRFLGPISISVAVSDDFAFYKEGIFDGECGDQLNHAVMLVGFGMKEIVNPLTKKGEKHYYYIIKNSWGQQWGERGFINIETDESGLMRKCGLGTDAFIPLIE

[13] = biological target: UniProt Q8II60
[14] = biological target: UniProt Q8I2W4
[15] = biological target: UniProt Q8ID96
[16] = biological target: UniProt Q8IDG2
[17] = biological target: UniProt Q8IJW4
[18] = biological target: UniProt Q8I3J5
[19] = biological target: UniProt Q8I5H7
[20] = biological target: UniProt Q8IDF0
[21] = biological target: UniProt Q8IE76
[22] = biological target: UniProt O97241
[23] = biological target: UniProt Q8I1Z8
[24] = biological target: UniProt Q8IBC3
[25] = biological target: UniProt C0H4U4
[26] = biological target: UniProt Q8IDD4
[27] = biological target: UniProt Q8II42
[28] = biological target: UniProt Q8IAY9
[29] = biological target: UniProt Q8I566
Sequence of UniProt Q8I566 (Q8I566 whole entry): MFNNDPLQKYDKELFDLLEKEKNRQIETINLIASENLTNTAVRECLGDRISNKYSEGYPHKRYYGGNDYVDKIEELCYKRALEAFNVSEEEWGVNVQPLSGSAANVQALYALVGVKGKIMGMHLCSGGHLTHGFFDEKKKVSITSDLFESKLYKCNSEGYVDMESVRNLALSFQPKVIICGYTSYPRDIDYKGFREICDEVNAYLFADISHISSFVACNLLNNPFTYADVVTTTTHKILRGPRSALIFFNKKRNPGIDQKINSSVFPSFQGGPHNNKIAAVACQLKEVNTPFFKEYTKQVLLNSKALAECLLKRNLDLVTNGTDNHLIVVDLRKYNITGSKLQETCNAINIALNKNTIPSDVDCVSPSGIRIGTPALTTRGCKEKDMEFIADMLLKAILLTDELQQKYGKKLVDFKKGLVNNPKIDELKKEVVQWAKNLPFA

[30] = biological target: UniProt Q8IDZ2
[31] = biological target: UniProt Q8IDB8
[32] = biological target: UniProt Q8IIF0
[33] = biological target: UniProt C0H4R8
[34] = biological target: UniProt Q8I5D2
Sequence of UniProt Q8I5D2 (Q8I5D2 whole entry): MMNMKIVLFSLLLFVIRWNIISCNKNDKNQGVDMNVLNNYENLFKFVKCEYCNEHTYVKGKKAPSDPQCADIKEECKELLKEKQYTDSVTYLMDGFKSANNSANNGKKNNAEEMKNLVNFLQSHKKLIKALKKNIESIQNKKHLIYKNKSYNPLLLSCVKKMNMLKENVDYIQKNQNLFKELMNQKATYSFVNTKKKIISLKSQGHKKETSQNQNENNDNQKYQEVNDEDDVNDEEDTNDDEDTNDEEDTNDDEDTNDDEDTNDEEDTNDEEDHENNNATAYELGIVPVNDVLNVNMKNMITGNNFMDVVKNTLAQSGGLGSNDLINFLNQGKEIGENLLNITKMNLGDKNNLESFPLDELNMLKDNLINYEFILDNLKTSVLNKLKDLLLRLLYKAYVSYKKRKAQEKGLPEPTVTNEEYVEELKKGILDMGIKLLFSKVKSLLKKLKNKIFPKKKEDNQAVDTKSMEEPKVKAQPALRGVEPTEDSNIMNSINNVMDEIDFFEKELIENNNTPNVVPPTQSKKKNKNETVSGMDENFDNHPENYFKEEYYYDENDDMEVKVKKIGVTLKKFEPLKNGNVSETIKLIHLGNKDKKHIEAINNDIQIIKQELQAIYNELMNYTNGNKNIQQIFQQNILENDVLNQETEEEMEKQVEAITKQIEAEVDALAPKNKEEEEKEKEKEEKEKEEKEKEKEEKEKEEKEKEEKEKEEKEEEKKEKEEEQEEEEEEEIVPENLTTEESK

[35] = biological target: UniProt Q8IJQ1
[36] = biological target: UniProt C6KT18
[37] = biological target: UniProt Q8II43
[38] = biological target: UniProt Q8IJZ7
[39] = biological target: UniProt Q8I207
[40] = biological target: UniProt Q8IJT9
[41] = biological target: UniProt Q8IJ34
[42] = biological target: UniProt Q8I249
[43] = biological target: UniProt Q8IIE7
[44] = biological target: UniProt Q8I3I5
[45] = biological target: UniProt Q8I5C4
[46] = biological target: UniProt O96259
[47] = biological target: UniProt Q8I5S6
[48] = biological target: UniProt Q8IDB7
[49] = biological target: UniProt Q8IM23
[50] = biological target: UniProt Q8ILL5
[51] = biological target: UniProt Q8I603
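Also: native unpurified kinases from lysate captured on beads bearing immobilized kinase inhibitors, with bead-bound kinases quantified by mass spectrometry across compound doses.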

`O=c1[nH]c2ccc(Cl)cc2c(NC2CN3CCC2CC3)c1-c1nc2ccccc2[nH]1` (stereo unspecified) [CHIR-124] showed an IC50 [1] of over 20 µM, an IC50 [2] of over 20 µM and an IC50 [3] of 7.85 µM. It also gave an IC50 [4] of over 20 µM, an IC50 [5] of over 20 µM and an IC50 [6] of over 20 µM. The IC50 [7] was over 20 µM, the IC50 [8] was over 20 µM and the IC50 [9] was over 20 µM. For the same compound, the IC50 [10] was over 20 µM, the IC50 [11] was over 20 µM and the IC50 [12] was over 20 µM. For the same compound, the IC50 [13] was over 20 µM, the IC50 [14] was over 20 µM and the IC50 [15] was over 20 µM. The IC50 [16] was over 20 µM, the IC50 [17] was over 20 µM and the IC50 [18] was over 20 µM. The IC50 [19] was over 20 µM, the IC50 [20] was over 20 µM and the IC50 [21] was over 20 µM. The IC50 [22] was over 20 µM, the IC50 [23] was over 20 µM and the IC50 [24] was over 20 µM. It also gave an IC50 [25] of over 20 µM, an IC50 [26] of over 20 µM and an IC50 [27] of over 20 µM. The IC50 [28] was over 20 µM, the IC50 [29] was over 20 µM and the IC50 [30] was over 20 µM. The IC50 [31] was over 20 µM, the IC50 [32] was over 20 µM and the IC50 [33] was 5.36 µM. For the same compound, the IC50 [34] was over 20 µM, the IC50 [35] was over 20 µM and the IC50 [36] was over 20 µM. The IC50 [37] was over 20 µM, the IC50 [38] was over 20 µM and the IC50 [39] was over 20 µM. The IC50 [40] was over 20 µM, the IC50 [41] was over 20 µM and the IC50 [42] was over 20 µM. For the same compound, the IC50 [43] was 0.177 µM, the IC50 [44] was over 20 µM and the IC50 [45] was over 20 µM. The IC50 [46] was over 20 µM, the IC50 [47] was over 20 µM and the IC50 [48] was over 20 µM. For the same compound, the IC50 [49] was over 20 µM, the IC50 [50] was over 20 µM and the IC50 [51] was over 20 µM.
